Experimental data from PubChem BioAssay AID1259407 (Chemical Carcinogenesis Research Information System (CCRIS), 2018).
Activity calls are given as the source filed them. How the calls were made is not given here.

Test system: CCRIS mutagenicity, Ames/micronucleus/aberration tests
Test: CCRIS mutagenicity studies

Measured: mutagenic call

CN(N=O)C(N)=O
active: End Point: IN VITRO CHROMOSOMAL ABERRATIONS, Test System: CHINESE HAMSTER V79-E CELLS, Metabolic Activation: NONE active; positive | End Point: IN VITRO CHROMOSOMAL ABERRATIONS, Test System: V79 CELLS (V79-C10), Metabolic Activation: NONE active; positive | End Point: IN VITRO MICRONUCLEUS, Test System: CHINESE HAMSTER V79 CELLS, Metabolic Activation: NONE active; positive at the cytotoxic dose of 0.8 mm | End Point: IN VITRO MICRONUCLEUS, Test System: MOUSE LYMPHOMA L5178Y CELLS, Metabolic Activation: NONE active; positive | End Point: Mutagenicity, Test System: Spleen: t-lymphocytes/hprt mutants, Species: Rat, Strain/Sex: Wistar/male, Route: Intraperitoneal active; positive; mutation induction dramatically lower following subchronic treatment; | Test System: AMES SALMONELLA TYPHIMURIUM, Strain/Indicator: G46, Metabolic Activation: NONE, Method: STANDARD PLATE active; positive | Test System: AMES SALMONELLA TYPHIMURIUM, Strain/Indicator: TA100, Metabolic Activation: NONE, Method: LIQUID INCUBATION active; positive | Test System: AMES SALMONELLA TYPHIMURIUM, Strain/Indicator: TA100, Metabolic Activation: NONE, Method: STANDARD PLATE active; positive | Test System: AMES SALMONELLA TYPHIMURIUM, Strain/Indicator: TA100, Metabolic Activation: RAT, LIVER, S-9, AROCLOR 1254, Method: PREINCUBATION active; positive | Test System: AMES SALMONELLA TYPHIMURIUM, Strain/Indicator: TA100, Metabolic Activation: RAT, LIVER, S-9, KC500 OR PHENOBARBITAL, Method: LIQUID SUSPENSION active; positive | Test System: AMES SALMONELLA TYPHIMURIUM, Strain/Indicator: TA100, Metabolic Activation: RAT, LIVER, S-9, PHENOBARBITAL, Method: STANDARD PLATE active; positive | Test System: AMES SALMONELLA TYPHIMURIUM, Strain/Indicator: TA102, Metabolic Activation: RAT, LIVER, S-9, AROCLOR 1254, Method: PREINCUBATION active; positive | Test System: AMES SALMONELLA TYPHIMURIUM, Strain/Indicator: TA104, Metabolic Activation: NONE, Method: PREINCUBATION active; positive | Test System: AMES SALMONELLA TYPHIMURIUM, Strain/Indicator: TA104, Metabolic Activation: RAT, LIVER, S-9, AROCLOR 1254, Method: PREINCUBATION active; positive | Test System: AMES SALMONELLA TYPHIMURIUM, Strain/Indicator: TA1530, Metabolic Activation: NONE, Method: PREINCUBATION active; positive | Test System: AMES SALMONELLA TYPHIMURIUM, Strain/Indicator: TA1530, Metabolic Activation: NONE, Method: STANDARD PLATE active; positive | Test System: AMES SALMONELLA TYPHIMURIUM, Strain/Indicator: TA1535, Metabolic Activation: NONE, Method: LIQUID INCUBATION active; positive | Test System: AMES SALMONELLA TYPHIMURIUM, Strain/Indicator: TA1535, Metabolic Activation: NONE, Method: PREINCUBATION active; positive | Test System: AMES SALMONELLA TYPHIMURIUM, Strain/Indicator: TA1535, Metabolic Activation: NONE, Method: STANDARD PLATE active; positive | Test System: AMES SALMONELLA TYPHIMURIUM, Strain/Indicator: TA1535, Metabolic Activation: RAT, LIVER, S-9, PCB OR PHENOBARBITAL, Method: STANDARD PLATE active; positive | Test System: AMES SALMONELLA TYPHIMURIUM, Strain/Indicator: YG7100, Metabolic Activation: NONE, Method: PREINCUBATION active; positive | Test System: AMES SALMONELLA TYPHIMURIUM, Strain/Indicator: YG7104, Metabolic Activation: NONE, Method: PREINCUBATION active; positive | Test System: AMES SALMONELLA TYPHIMURIUM, Strain/Indicator: YG7108, Metabolic Activation: NONE, Method: PREINCUBATION active; positive | Test System: AMES SALMONELLA TYPHIMURIUM, Strain/Indicator: YG7112, Metabolic Activation: NONE, Method: PREINCUBATION active; positive | Test System: AMES SALMONELLA TYPHIMURIUM, Strain/Indicator: YG7113, Metabolic Activation: NONE, Method: PREINCUBATION active; positive | Test System: AMES SALMONELLA TYPHIMURIUM, Strain/Indicator: YG7119, Metabolic Activation: NONE, Method: PREINCUBATION active; positive | Test System: CHINESE HAMSTER OVARY, Strain/Indicator: CHO-K1-BH4 (HGPRT), Metabolic Activation: NONE, Method: SUSPENSION/PLATE active; positive | Test System: CHINESE HAMSTER V-79, Strain/Indicator: V-79/6-THIOGUANINE, Metabolic Activation: NONE, Method: FLASK ASSAY active; positive | Test System: CHINESE HAMSTER V-79, Strain/Indicator: V-79/6-THIOGUANINE, Metabolic Activation: NONE, Method: STANDARD PLATE active; positive | Test System: CHINESE HAMSTER V-79, Strain/Indicator: V-79/8-AZAGUANINE, Metabolic Activation: NONE, Method: STANDARD PLATE active; positive | Test System: CHINESE HAMSTER V-79, Strain/Indicator: V-79/OUABAIN, Metabolic Activation: NONE active; positive | Test System: CHO/HGPRT, Strain/Indicator: CHO-K1-BH4, Metabolic Activation: NONE active; positive | Test System: CHO/HGPRT, Strain/Indicator: CHO-K1-BH4, Metabolic Activation: NONE, Method: STANDARD PLATE active; positive | Test System: E. COLI, Strain/Indicator: H/R30R, Metabolic Activation: NONE active; positive | Test System: E. COLI, Strain/Indicator: H/R30R, Metabolic Activation: NONE, Method: PREINCUBATION active; positive | Test System: E. COLI, Strain/Indicator: HS30R UVRA, Metabolic Activation: NONE, Method: PREINCUBATION active; positive | Test System: E. COLI, Strain/Indicator: HS30R, Metabolic Activation: NONE active; positive | Test System: E. COLI, Strain/Indicator: NG30 RECA, Metabolic Activation: NONE, Method: PREINCUBATION active; positive | Test System: E. COLI, Strain/Indicator: O16 POLA, Metabolic Activation: NONE, Method: PREINCUBATION active; positive | Test System: E. COLI, Strain/Indicator: WP2, Metabolic Activation: NONE, Method: FLUCTUATION active; positive | Test System: E. COLI, Strain/Indicator: WP2, Metabolic Activation: NONE, Method: STANDARD PLATE active; positive | Test System: E. COLI, Strain/Indicator: WP2 UVRA, Metabolic Activation: NONE, Method: FLUCTUATION active; positive | Test System: E. COLI, Strain/Indicator: WP2 UVRA, Metabolic Activation: NONE, Method: STANDARD PLATE active; positive | Test System: LacZ transgenic mouse (Muta Mouse), Strain/Indicator: LacZ Mutant frequency, Method: Liver and kidney harvested 37 days after last dose active; positive in kidney. no increase in mutation frequency in liver. | Test System: UDS HUMAN CELLS, Strain/Indicator: THY INCORP (NON-S-PHASE), Metabolic Activation: NONE, Method: LIQUID SCINTILLATION COUNTING active; positive | Test System: UDS HUMAN FIBROBLASTS, Strain/Indicator: THY INCORP (NON-S-PHASE), Metabolic Activation: NONE, Method: AUTORADIOGRAPHY active; positive | Test System: UDS MOUSE SPERMATOGONIAL AND POSTSPERMATOGONIAL CELLS IN VIVO, Strain/Indicator: THYMIDINE INCORPORATION, Metabolic Activation: NONE, Method: AUTORADIOGRAPHY active; positive | Test System: UDS RODENT CELLS, Strain/Indicator: THY INCORP (NON-S-PHASE), Metabolic Activation: NONE, Method: LIQUID SCINTILLATION COUNTING active; positive
